# Experiments:
# [1] = Sensory evaluation of yogurt flavor intensity in yogurt drink (Experimental Example 14); settings: added alone, 3.0 points or more
# Procedure: Yogurt drink (product name: 7 Premium Yogurt Drink, SEVEN-ELEVEN JAPAN CO., LTD.) was diluted 1.2 times with filtered water to prepare negative control yogurt drink.
# When the carbohydrate content of 7 Premium Yogurt Drink is calculated as the total sucrose content, the negative control yogurt drink contains 10.75 g of sucrose per 100 g.
# A sensory evaluation of sweetness intensity and yogurt flavor intensity was performed for each sample by a panel of three experts according to the following evaluation criteria.
# Sweetness intensity and yogurt flavor intensity were each evaluated by 0.0 to 10.0 point based on the following reference samples (negative control (hereinafter referred to as NC) (0.0 point); reference 1 (hereinafter referred to as R1) (5.0 points); reference 2 (hereinafter referred to as R2) (10.0 points)). The average score (rounded to two decimal places) of each expert panelist was calculated. An average score of 3.0 points or more was considered to be functional. • NC (0.0 point): yogurt drink (product name: 7 Premium Yogurt Drink, SEVEN-ELEVEN JAPAN CO., LTD.) diluted 1.2 times with filtered water. • R1 (5.0 points): with 0.54 g of sucrose added per 99.46 g of NC. • R2 (10.0 points): with 1.08 g of sucrose added per 98.92 g of NC.
# [2] = Sensory evaluation of sweetness intensity in orange drink (Experimental Examples 1-5); settings: added alone, score (average) of 3.0 points or more
# Procedure: A negative control orange drink was prepared by diluting an orange drink (product name: Bireley's Orange, 20% wt % orange juice, Asahi Soft Drinks Co., Ltd.) 1.2 times with filtered water.
# When the carbohydrate content of Bireley's Orange is calculated as the total sucrose content, the negative control orange drink contains 9.17 g of sucrose per 100 g.
# (§1) A sensory evaluation of sweetness intensity was performed for each sample by a panel of four experts according to the following evaluation criteria.
# (§2) Sweetness intensity was evaluated by 0.0 to 10.0 point based on the following reference samples (negative control (hereinafter referred to as NC) (0.0 point); reference 1 (hereinafter referred to as R1) (5.0 points); reference 2 (hereinafter referred to as R2) (10.0 points)). The average score (rounded to two decimal places) of each expert panelist was calculated. An average score of 3.0 points or more was considered to be functional. • NC (0.0 point): orange drink (trade name: Bireley's Orange, Asahi Soft Drinks Co., Ltd.) diluted 1.2 times with filtered water (i.e., negative control orange drink). • R1 (5.0 points): with 0.46 g of sucrose added per 99.54 g of NC. • R2 (10.0 points): with 0.92 g of sucrose added per 99.08 g of NC.
# A sensory evaluation of sweetness intensity was performed for each sample by a panel of four experts according to the same evaluation criteria as in Experimental Example 1.
# [3] = Sensory evaluation of sweetness intensity in RebM solution (Experimental Examples 20-21); settings: added alone, 3.0 points or more
# Procedure: A negative control RebM solution (0.063 wt % RebM solution) was prepared by dissolving RebM in filtered water.
# as §1
# Sweetness intensity was evaluated by 0.0 to 10.0 points based on the following reference samples (negative control (hereinafter referred to as NC) (0.0 point); reference 1 (hereinafter referred to as R1) (3.0 points), reference 2 (hereinafter referred to as R2) (5.0 points); reference 3 (hereinafter referred to as R3) (10.0 points)). The average score (rounded to two decimal places) of each expert panelist was calculated. An average score of 3.0 points or more was considered to be functional. • NC (0.0 point): 0.063 wt % RebM solution (solvent: filtered water) • R1 (3.0 points): 0.063 wt % RebM solution (solvent: filtered water)+dodecanoic acid (1 ppb) • R2 (5.0 points): 0.066 wt % RebM solution (solvent: filtered water) • R3 (10.0 points): 0.069 wt % RebM solution (solvent: filtered water)
# A sensory evaluation of sweetness intensity was performed for each sample by a panel of four experts according to the same evaluation criteria as in Experimental Example 20.
# [4] = Sensory evaluation of cafe au lait flavor intensity in sucrose-containing cafe au lait (Experimental Example 16); settings: added alone, 3.0 points or more
# Procedure: Negative control cafe au lait was prepared by the same method as in Experimental Example 6.
# A sensory evaluation of the presence or absence of cafe au lait flavor intensity enhancement was performed for each sample by a panel of four experts according to the following evaluation criteria.
# Cafe au lait flavor intensity was evaluated by 0.0 to 10.0 point based on the following reference samples (negative control (hereinafter referred to as NC) (0.0 point); reference 1 (hereinafter referred to as R1) (5.0 points); reference 2 (hereinafter referred to as R2) (10.0 points)). The average score (rounded to two decimal places) of each expert panelist was calculated. An average score of 3.0 points or more was considered to be functional. • NC (0.0 point): cafe au lait prepared by mixing starting materials at the blending rate in Table 6 in Experimental Example 6 (i.e., negative control cafe au lait). • R1 (5.0 points): drink with 0.15 g of sucrose added per 99.85 g of NC. • R2 (10.0 points): drink with 0.3 g of sucrose added per 99.70 g of NC.
# [5] = Sensory evaluation of orange flavor intensity in orange drink (Experimental Example 13); settings: added alone, 3.0 points or more
# Procedure: A negative control orange drink was prepared by the same method as in Experimental Example 1.
# A sensory evaluation of orange flavor intensity was performed for each sample by a panel of three experts according to the following evaluation criteria.
# as §2, with “Orange flavor” for “Sweetness”, “Orange)” for “Orange, Asahi Soft Drinks Co., Ltd.)”
Structure (SMILES),concentration at which a yogurt flavor-enhancing effect was confirmed [1] [ppb],concentration at which a sweetness-enhancing effect was confirmed [2] [ppb],concentration at which a sweetness-enhancing effect was confirmed [3] [ppb],concentration at which a cafe au lait flavor-enhancing effect was confirmed [4] [ppb],concentration at which an orange flavor-enhancing effect was confirmed [5] [ppb]
CC1=C(O)C(=O)CC1 [cyclotene],≥ 0.01,≥ 0.1,10,≥ 0.1,≥ 10
CCCCCCCCCC(=O)O [decanoic acid],≥ 0.01,≥ 0.1,10,≥ 0.01,≥ 0.01
CC(C)CCC(=O)O [4-methylpentanoic acid],≥ 0.1,≥ 10,100,≥ 1,≥ 10
